The text below walks through data of paper PMC5130005, “Indolin-2-one compounds targeting thioredoxin reductase as potential anticancer drug leads” (Oncotarget, 2016).

The nature of data set [1]: cell viability, MRC-5 normal lung fibroblasts. The conditions noted are these: MRC-5 human normal lung fibroblasts, read-out: LC50, MRC-5 cells. It counts as cell-based.
Data set [2] relates to HCT 116 cells. As to the kind of experiment: ROS determination (carboxy-H2DCFDA, DCF fluorescence). In kind it is cell-based, human. As to conditions: 50 μM, 3 h, versus DMSO control. Here is the method:
Oxidative stress was assessed through estimating the level of ROS using the H2DCFDA assay with modifications. Briefly, HCT 116 cells were seeded in 6-well plates and incubated for 24-48 h at 37°C till 70-80% confluency. They were treated with H2O2 (200 μM) or compounds 4 and 5 (20, 30, 40 or 50 μM) for 3 h. Following treatment, cells were washed with PBS and incubated with 10 μM carboxy-H2DCFDA in PBS at 37°C in the dark for 45 min to allow reaction between taken up H2DCF and ROS. The cells were collected, washed with cold PBS, pelleted, resuspended in 200 μl of PBS and transferred to wells in a 96-well black fluorescence plate. The fluorescence intensities were measured at an excitation wavelength of 485 nm and an emission wavelength of 530 nm using a Tecan Infinite M200 Pro microplate reader. The results were expressed as a percentage of fluorescence intensities measured in drug-treated cells over those produced in DMSO-treated cells.

For data set [3], the system named is HCT 116 cells. As to the kind of experiment: total cellular thiols. It counts as cell-based, human. As to conditions: 20-50 μM.
For data set [4], the target named is T1, TrxR in Keap1-null (Keap1−/−) MEFs (Mus musculus, UniProt Q9JMH6).
T1 sequence (Q9JMH6 115-613 limits assumed): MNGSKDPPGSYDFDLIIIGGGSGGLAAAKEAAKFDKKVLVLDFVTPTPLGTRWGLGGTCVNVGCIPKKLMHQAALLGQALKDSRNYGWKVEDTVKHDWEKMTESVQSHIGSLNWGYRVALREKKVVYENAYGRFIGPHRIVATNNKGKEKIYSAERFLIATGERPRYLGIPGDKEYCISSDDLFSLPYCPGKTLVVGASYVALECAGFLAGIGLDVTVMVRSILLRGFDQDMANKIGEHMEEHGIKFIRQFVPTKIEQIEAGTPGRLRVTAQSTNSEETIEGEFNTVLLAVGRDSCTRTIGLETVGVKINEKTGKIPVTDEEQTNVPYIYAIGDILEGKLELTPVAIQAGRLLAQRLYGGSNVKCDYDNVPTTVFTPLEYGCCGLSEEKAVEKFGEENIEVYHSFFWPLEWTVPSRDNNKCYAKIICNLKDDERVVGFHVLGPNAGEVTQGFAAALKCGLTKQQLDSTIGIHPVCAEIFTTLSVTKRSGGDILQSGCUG
The data set can be described thus: TrxR activity in Keap1-null MEF lysates. As to conditions: 5 h treatment, 20 to 40 μM. It counts as cell-based. Here is the method: Cells were seeded onto 100 mm or 60 mm culture plates and upon reaching ~70% confluency, they were subjected to drug treatment for indicated durations. Pellets of compound-treated or DMSO control cells comprising both attached and floating cells were collected and lysed in lysis buffer (25 mM Tris-HCl pH 7.5, 100 mM NaCl, 2.5 mM EDTA, 2.5 mM EGTA, 20 mM NaF, 1 mM Na3VO4, 20 mM sodium β-glycerophosphate, 10 mM sodium pyrophosphate, 0.5% Triton X-100) with freshly added protease inhibitor cocktail (Roche Diagnostics). Prior to being used in Western blot analysis and/or cellular TrxR, GR, Trx and GPx activity determination, lysates were precleared by centrifugation and protein concentrations were determined using a modified Bradford assay (Bio-Rad Laboratories) as described in the manufacturer's manual. This procedure for collecting whole cell lysate was used for all experiments except for the Trx-redox state determination experiment. […]
Freshly collected cell lysates were used for measurement of activity of cellular Trx and TrxR. […] The amount of free thiols generated from insulin reduction was determined by DTNB reduction at 412 nm using the VersaMax microplate reader. […] For each sample, Trx or TrxR activity was calculated as the absorbance at 412 nm subtracted from that of the corresponding control and expressed as a percentage of the activity measured in DMSO-treated cells.

In the case of `CCCCN1C(=O)/C(=C/C(C)=O)c2ccccc21` [Compound 4], the CC50 at 72 h in data set [1] was 25.5 ± 2.7 µM. Further, the “DCF fluorescence (cellular oxidative stress)” value with HCT 116 cells [2] is “markedly increased DCF fluorescence”. Moreover, the total cellular thiols result with HCT 116 cells [3] is listed as “depletion of total cellular thiols in a dose-dependent manner”. The “TrxR activity in Keap1−/− MEFs” value in data set [4] was “elevated TrxR activity”.

In the case of `CC(=O)/C=C1/C(=O)N(Cc2ccccc2)c2ccccc21` [Compound 5], in data set [1], the CC50 at 72 h turned out to be 22.7 ± 2.4 µM. Further, the “DCF fluorescence (cellular oxidative stress)” value with HCT 116 cells [2] was “markedly increased DCF fluorescence”. In the data set with HCT 116 cells [3], the total cellular thiols entry is “depletion of total cellular thiols in a dose-dependent manner”. In data set [4], the “TrxR activity in Keap1−/− MEFs” value is listed as “elevated TrxR activity”.
